Data published in ChEMBL document CHEMBL1134312, “Design, synthesis, and biological activity of a novel non-cisplatin-type platinum-acridine pharmacophore” (J Med Chem, 2001).

Tests used:
[1] = Cytotoxicity against human ovarian 2008 (wild type) cell lines; type: functional, cell-based
C13 = experiment: Cytotoxicity against cisplatin-resistant cell lines (C13*); type: functional, cell-based, Homo sapiens
HL-60 = experiment: Cytotoxicity against HL-60 leukemia cells; type: functional, cell-based, Homo sapiens

Compound | IC50 [1] [µM] | IC50 (C13; c13) [µM] | IC50 (HL-60; hl-60) [µM] | IC50 ([1]; Homo sapiens) [µM] | IC50 (C13; Homo sapiens, C13) [µM] | IC50 (HL-60; Homo sapiens, HL-60) [µM]
2-(9-acridiniumylamino)ethyl(methyl)amino(imino)methyl(methyl)amine1-PtCl(en) | 3.8 | 9.6 | 0.13 |  |  | 
CNC(=S)N(C)CCNc1c2ccccc2nc2ccccc12 |  |  |  | 2.2 | 3.7 | 11
9-acridinylmethylamino-methylaminomethanethione1-PtCl(en) | > 100 | > 100 | 75 |  |  | 
